From ChEMBL document CHEMBL4303121, “Human organs-on-chips as tools for repurposing approved drugs as potential influenza and COVID19 therapeutics in viral pandemics” (2020) come the findings set out here.

The structures appear in SMILES notation.

Data set [1] deals with SARS-CoV-2. Kind of data set: Inhibition of SARS-CoV-2 pseudoparticle entry in Huh-7 cells, assessed by luciferase assay after 72 hrs. It is filed as functional, Homo sapiens. Conditions: Severe acute respiratory syndrome coronavirus 2, Huh-7, 72 h; for inhibition at 1 µM: CONC 1 uM; for inhibition at 5 µM: CONC 5 uM.
The subject of data set [2] is SARS-CoV-2. Kind of data set: Inhibition of SARS-CoV-2 pseudoparticle entry in human lung Airway Chip at reported drug Cmax, assessed by qRT-PCR after 48 hrs. The note with it: Severe acute respiratory syndrome coronavirus 2, Lung epithelium. Type of data set: functional.
The nature of data set [3]: Assessment of cytotoxicity in Huh-7 cells, assessed as % inhibition of cell viability by Celltiter-Glo assay after 48 hrs. It is filed as toxicity, cell-based. Conditions: human, read-out: Inhibition; for cytotoxicity at 48 h, 1 µM: conc 1 uM; for cytotoxicity at 48 h, 5 µM: conc 5 uM.

Take `COc1ccc(CCN(C)CCCC(C#N)(c2ccc(OC)c(OC)c2)C(C)C)cc1OC` (stereo not drawn): in the data set on SARS-CoV-2 [1], the inhibition at 1 µM came out at 15% and the inhibition at 5 µM came to 50%. In addition, in the data set on SARS-CoV-2 [2] (CONC 0.81 uM), the inhibition at 0.81 µM was found to be 10%.
Regarding `CCCCc1oc2ccccc2c1C(=O)c1cc(I)c(OCCN(CC)CC)c(I)c1` [AMIODARONE], in the data set with SARS-CoV-2 [1], the inhibition at 1 µM amounted to 55% and the inhibition at 5 µM was determined as 70%. In the data set on SARS-CoV-2 [2] (CONC 20.04 uM), at 20.04 µM the inhibition was 20%. Besides, in data set [3], the cytotoxicity at 48 h, 1 µM turned out to be 1% and the cytotoxicity at 48 h, 5 µM came out at 2%.
In the data set with SARS-CoV-2 [1], `CCN(CC)Cc1cc(Nc2ccnc3cc(Cl)ccc23)ccc1O` [AMODIAQUINE] had an inhibition at 1 µM of 70% and an inhibition at 5 µM of 90%. In the data set with SARS-CoV-2 [2] (CONC 1.24 uM), at 1.24 µM the inhibition was 60%. In data set [3], the cytotoxicity at 48 h, 1 µM stood at 1% and the cytotoxicity at 48 h, 5 µM is -5%.
In the data set with SARS-CoV-2 [1], `CCN(CC)CCCC(C)Nc1ccnc2cc(Cl)ccc12` (stereo not drawn) [CHLOROQUINE] gave an inhibition at 1 µM of 50% and an inhibition at 5 µM of 85%. The molecule further returned an inhibition at 1.91 µM in the data set with SARS-CoV-2 [2] (CONC 1.91 uM) of 10%. In data set [3], the cytotoxicity at 48 h, 1 µM stood at 2% and the cytotoxicity at 48 h, 5 µM turned out to be 3%.
On to `CCN(CC)CCOc1ccc(C(=C(Cl)c2ccccc2)c2ccccc2)cc1` [CLOMIPHENE], for which, in the data set with SARS-CoV-2 [1], testing at 1 µM gave an inhibition of 60% and the inhibition at 5 µM was 80%. This molecule also yielded an inhibition at 0.83 µM in the data set on SARS-CoV-2 [2] (CONC 0.83 uM) of 30%. In data set [3], the cytotoxicity at 48 h, 1 µM turned out to be 2% and the cytotoxicity at 48 h, 5 µM worked out at 12%.
Turning to `CN(C)CCOc1ccc(/C(=C(/CCCl)c2ccccc2)c2ccccc2)cc1` [TOREMIFENE], in the data set with SARS-CoV-2 [1], the inhibition at 1 µM is 30% and testing at 5 µM gave an inhibition of 65%. Also, in the data set on SARS-CoV-2 [2] (CONC 2.98 uM), the inhibition at 2.98 µM came to 50%. Further, in data set [3], the cytotoxicity at 48 h, 1 µM came out at 1% and the cytotoxicity at 48 h, 5 µM was 10%.
Regarding `CCOC(=O)c1c(CSc2ccccc2)n(C)c2cc(Br)c(O)c(CN(C)C)c12` [UMIFENOVIR], in the data set on SARS-CoV-2 [1], the inhibition at 1 µM was 5% and testing at 5 µM gave an inhibition of 75%. In addition, testing at 3.89 µM with SARS-CoV-2 [2] (CONC 3.89 uM) gave an inhibition of 20%. Besides, in data set [3], the cytotoxicity at 48 h, 1 µM stood at 1% and the cytotoxicity at 48 h, 5 µM amounted to 10%.
